Laboratory results: ChEMBL document CHEMBL5046233, “Nitroxoline and its derivatives are potent inhibitors of metallo-β-lactamases” (Eur J Med Chem, 2022)
Active and inactive are the calls of the source. No cut-off for these calls is given here.

Legend:
Klebsiella pneumoniae [1] = assay: Antimicrobial activity against Klebsiella pneumoniae T2301 expressing NDM-1 assessed as assessed as inhibition of bacterial growth at 0.5XMIC measured after 24 hrs by time-kill assay; assay type: functional, organism-based
Enterobacter cloacae = assay: Potentiation of imipenem-induced antibacterial activity against Enterobacter cloacae T2311 expressing NDM-1 assessed as imipenem MIC at 32 mg/L by CLSI protocol based broth microdilution assay; assay type: functional
Klebsiella pneumoniae [2] = assay: Potentiation of ciprofloxacin-induced antibacterial activity against Klebsiella pneumoniae clinical isolate T2301 expressing NDM-1 assessed as ciprofloxacin MIC at 32 mg/L by CLSI protocol based broth microdilution assay; assay type: functional
[3] = Inhibition of recombinant NDM-1 (unknown origin) using fluorocillin as substrate at 3 uM incubated for 30 mins by fluorescence based assay; conditions: Bacteria
Escherichia coli [4] = assay: Antimicrobial activity against Escherichia coli T2359 expressing VIM-1 assessed as inhibition of bacterial growth at 0.5XMIC for 6 hrs by CLSI protocol based broth microdilution assay; assay type: functional, organism-based
Pseudomonas aeruginosa [5] = assay: Potentiation of imipenem-induced antibacterial activity against Pseudomonas aeruginosa T2283 expressing VIM-2 assessed as fold change in imipenem MIC at 32 mg/L by CLSI protocol based broth microdilution assay; assay type: functional
Escherichia coli [6] = assay: Potentiation of imipenem-induced antibacterial activity against Escherichia coli T2435 expressing KPC-2 assessed as imipenem MIC at 32 mg/L by CLSI protocol based broth microdilution assay; assay type: functional
Pseudomonas aeruginosa [7] = assay: Potentiation of imipenem-induced antibacterial activity against Pseudomonas aeruginosa T2217 expressing VIM-2 assessed as fold change in imipenem MIC at 32 mg/L by CLSI protocol based broth microdilution assay; assay type: functional
Pseudomonas aeruginosa [8] = assay: Potentiation of imipenem-induced antibacterial activity against Pseudomonas aeruginosa T2325 expressing IMP-1 assessed as fold change in imipenem MIC at 32 mg/L by CLSI protocol based broth microdilution assay; assay type: functional
Escherichia coli [9] = assay: Bactericidal activity against Escherichia coli T2359 expressing VIM-1 assessed as killing rate at 0.5 XMIC measured after 24 hrs in presence of imipenem by time-kill assay relative to control; assay type: functional

SMILES: N#CCN(Cc1ccccc1)Cc1cc([N+](=O)[O-])c2cccnc2c1O
- Activity (Klebsiella pneumoniae [1]): inactive
- MIC (Enterobacter cloacae): 0.5 ng/mL
- MIC (Klebsiella pneumoniae [2]): 128 ng/mL
- inhibition [3]: 68%
- inhibition (Escherichia coli [4]): Active
- fold change (FC) (Pseudomonas aeruginosa [5]): 32
- MIC (Escherichia coli [6]): 4 ng/mL
- fold change (FC) (Pseudomonas aeruginosa [7]): 16
- fold change (FC) (Pseudomonas aeruginosa [8]): 32
- Activity (Escherichia coli [9]): >99.9%
